# Results taken from patent US20210363213A1, “GLUCAGON-GLP-1-GIP TRIPLE AGONIST COMPOUNDS” (priority 2013, published 2021).
# Read-outs that look alike come from different tables or passages of the source. Numbered stars: 1 amine (or outer) side, 2 acyl side, 3 side chain; on linkers, the order of the positions; unused ones are H or OH. Square brackets hold non-standard residues; d marks the D form. Side chains are listed from the residue outwards. Peptide text beside a SMILES is read from it. * marks the point of attachment. γGlu = O=C(O)[C@H](CCC(=O)[*:2])N[*:1]; Stearoyl = CCCCCCCCCCCCCCCCCC(=O)*; AEEA = NCCOCCOCC(=O)O; Aib = CC(C)(N)C(=O)O
# Experiments:
# human GIP R = target: T1, human GIP R (Homo sapiens, UniProt P48546); experiment: Human GIP receptor (GIP-R) activity assay, cAMP induction (AlphaScreen) in HEK293 cells; format: cell-based; details: average EC50, cAMP in HEK293 cells expressing human GIP R, read-out: GIP R (EC50 in nM)
# T1 construct: expressed in transfected cells
# T1 sequence (P48546 22-466): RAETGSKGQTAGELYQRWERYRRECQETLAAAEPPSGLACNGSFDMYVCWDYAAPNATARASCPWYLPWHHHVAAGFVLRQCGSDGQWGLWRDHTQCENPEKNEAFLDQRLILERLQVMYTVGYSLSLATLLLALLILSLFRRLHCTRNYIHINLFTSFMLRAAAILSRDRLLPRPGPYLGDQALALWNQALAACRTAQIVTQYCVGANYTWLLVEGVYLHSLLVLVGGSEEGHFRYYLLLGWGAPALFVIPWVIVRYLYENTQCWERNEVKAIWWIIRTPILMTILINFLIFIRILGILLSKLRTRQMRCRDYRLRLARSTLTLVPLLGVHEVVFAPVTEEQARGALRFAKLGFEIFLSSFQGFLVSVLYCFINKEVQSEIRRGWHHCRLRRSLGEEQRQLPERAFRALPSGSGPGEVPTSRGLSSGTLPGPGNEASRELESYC
# Experimental: (§1) Briefly, HEK293 cells expressing the human GIP R, GLP-1 R or GCG R (stable cell lines generated through transfection of the cDNA for human GIP R, GLP-1 R or GCG R and selection of stable clones) were seeded at 30,000 cells/well in 96-well microtiter plates coated with 0.01% poly-L-lysine, and grown for 1 day in culture in 200 μl growth medium (DMEM, 10% FCS, Penicillin (100 IU/ml), Streptomycin (100 μg/ml)). On the day of analysis, growth medium was removed and the cells were washed once with 150 μl Tyrode's buffer (Tyrode's Salts (9.6 g/I), 10 mM HEPES, pH 7.4). […] The Assay buffer was removed and cells are lysed in 80 μl Lysis buffer (0.1% w/v BSA, 5 mM HEPES, 0.3% v/v Tween-20) per well. From each well 10 μl of lysed cells were transferred to a 384-well plate and mixed with 15 μl bead-mix (1 Unit/15 μl anti-cAMP Acceptor Beads, 1 Unit/15 μl Donor Beads, and 1 Unit/15 μl Biotinylated cAMP in Assay Buffer). The plates were mixed and incubated in the dark for an hour at room temperature before measuring using an Envision™ plate reader (Perkin-Elmer).
# (§2) The resulting cAMP curves were plotted as absolute cAMP concentrations (nM) over log (test compound concentration) and analyzed using the curve fitting program XLfit.
# (§3) Parameters calculated to describe both the potency as well as the agonistic activity of each test compound on the receptors were:
# (§4) EC50, a concentration resulting in a half-maximal elevation of cAMP levels, reflecting the potency of the test compound.
# human GLP-1 R = target: T2, human GLP-1 R (Homo sapiens, UniProt P43220); experiment: Human GLP-1 receptor (GLP-1-R) activity assay, cAMP induction (AlphaScreen) in HEK293 cells; format: cell-based; details: average EC50, cAMP in HEK293 cells expressing human GLP-1 R, read-out: GLP1 R (EC50 in nM)
# T2 construct: expressed in transfected cells
# Experimental: as §1, §2, §3, §4
# human GCG R = human GCG R (Homo sapiens, UniProt P47871); details: read-out: GCG R (EC50 in nM); Table 2; average EC50; cAMP in HEK293 cells expressing human GCG R
# Experimental: as §1, §2
# Parameters calculated to describe both the potency as well as the agonistic activity of each test compound on the receptors were: […]
# [1] = Table 2b (most comprehensive data)
# T2 sequence (P43220 24-463): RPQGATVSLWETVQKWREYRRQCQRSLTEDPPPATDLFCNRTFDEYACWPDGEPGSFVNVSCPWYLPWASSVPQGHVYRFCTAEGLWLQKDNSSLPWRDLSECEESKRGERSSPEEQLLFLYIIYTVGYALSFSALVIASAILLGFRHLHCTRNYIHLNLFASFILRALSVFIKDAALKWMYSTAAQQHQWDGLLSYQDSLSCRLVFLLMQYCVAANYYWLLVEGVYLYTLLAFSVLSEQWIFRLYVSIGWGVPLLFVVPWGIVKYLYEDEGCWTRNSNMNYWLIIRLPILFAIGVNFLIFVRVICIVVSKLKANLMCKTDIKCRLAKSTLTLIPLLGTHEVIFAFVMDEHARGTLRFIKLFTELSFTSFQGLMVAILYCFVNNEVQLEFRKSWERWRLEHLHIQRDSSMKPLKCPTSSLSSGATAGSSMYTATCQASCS
# human GCG R, sequence (P47871 26-477): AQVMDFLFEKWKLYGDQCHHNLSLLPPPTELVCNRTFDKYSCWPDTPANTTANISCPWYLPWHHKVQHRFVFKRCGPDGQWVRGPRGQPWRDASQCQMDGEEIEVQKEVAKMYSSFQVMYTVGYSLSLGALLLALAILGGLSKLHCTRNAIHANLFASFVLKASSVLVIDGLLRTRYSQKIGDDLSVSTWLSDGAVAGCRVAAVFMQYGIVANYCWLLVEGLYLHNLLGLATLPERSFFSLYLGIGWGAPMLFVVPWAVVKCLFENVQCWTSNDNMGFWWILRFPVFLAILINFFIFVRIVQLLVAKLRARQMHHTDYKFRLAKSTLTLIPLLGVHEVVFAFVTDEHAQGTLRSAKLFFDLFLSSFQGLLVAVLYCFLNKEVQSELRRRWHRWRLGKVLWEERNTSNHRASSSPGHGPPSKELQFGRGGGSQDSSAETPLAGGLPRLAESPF
SMILES,EC50 (human GIP R; Table 2) [nM],EC50 (human GLP-1 R; Table 2) [nM],EC50 (human GCG R) [nM],EC50 (human GIP R; [1]) [nM],EC50 (human GLP-1 R; [1]) [nM]
CC[C@H](C)[C@H](NC(=O)[C@H](CO)NC(=O)[C@H](Cc1ccc(O)cc1)NC(=O)[C@H](CC(=O)O)NC(=O)[C@H](CO)NC(=O)[C@@H](NC(=O)[C@H](Cc1ccccc1)NC(=O)[C@@H](NC(=O)CNC(=O)[C@H](CCC(N)=O)NC(=O)C(C)(C)NC(=O)[C@@H](N)Cc1ccc(O)cc1)[C@@H](C)O)[C@@H](C)O)C(=O)N[C@@H](Cc1ccc(O)cc1)C(=O)N[C@@H](CC(C)C)C(=O)N[C@@H](CCC(=O)O)C(=O)N[C@@H](CCCCN)C(=O)N[C@@H](CCCCN)C(=O)N[C@@H](C)C(=O)N[C@@H](C)C(=O)N[C@@H](Cc1c[nH]cn1)C(=O)N[C@@H](CC(=O)O)C(=O)N[C@@H](Cc1ccccc1)C(=O)N[C@H](C(=O)N[C@@H](CCC(=O)O)C(=O)N[C@@H](Cc1c[nH]c2ccccc12)C(=O)N[C@@H](CC(C)C)C(=O)N[C@@H](CC(C)C)C(=O)N[C@@H](CO)C(=O)N[C@@H](C)C(N)=O)C(C)C [Compound 14] (HELM PEPTIDE1{Y.[Aib].Q.G.T.F.T.S.D.Y.S.I.Y.L.E.K.K.A.A.H.D.F.V.E.W.L.L.S.A.[am]}$$$$V2.0),0.06,0.013,0.1,,
CC[C@H](C)[C@H](NC(=O)[C@H](CO)NC(=O)[C@H](Cc1ccc(O)cc1)NC(=O)[C@H](CC(=O)O)NC(=O)[C@H](CO)NC(=O)[C@@H](NC(=O)[C@H](Cc1ccccc1)NC(=O)[C@@H](NC(=O)CNC(=O)[C@H](CCC(N)=O)NC(=O)C(C)(C)NC(=O)[C@@H](N)Cc1ccc(O)cc1)[C@@H](C)O)[C@@H](C)O)C(=O)N[C@@H](Cc1ccc(O)cc1)C(=O)N[C@@H](CC(C)C)C(=O)N[C@@H](CCC(=O)O)C(=O)N[C@@H](CCCCN)C(=O)N[C@@H](CCCCN)C(=O)N[C@@H](C)C(=O)N[C@@H](C)C(=O)N[C@@H](Cc1c[nH]cn1)C(=O)N[C@@H](CC(=O)O)C(=O)N[C@@H](Cc1ccccc1)C(=O)N[C@H](C(=O)N[C@@H](CCC(=O)O)C(=O)N[C@@H](Cc1c[nH]c2ccccc12)C(=O)N[C@@H](CC(C)C)C(=O)N[C@@H](CC(C)C)C(=O)N[C@@H](CO)C(=O)N[C@@H](C)C(N)=O)C(C)C [Compound 15] (HELM PEPTIDE1{Y.[Aib].Q.G.T.F.T.S.D.Y.S.I.Y.L.E.K.K.A.A.H.D.F.V.E.W.L.L.S.A.[am]}$$$$V2.0),0.025,0.016,0.058,,
CCCCCCCCCCCCCCCCCC(=O)N[C@@H](CCC(=O)NCCOCCOCC(=O)NCCOCCOCC(=O)NCCCC[C@H](NC(=O)[C@H](CCCCN)NC(=O)[C@H](CC(=O)O)NC(=O)[C@H](CC(C)C)NC(=O)[C@H](Cc1ccc(O)cc1)NC(=O)[C@@H](NC(=O)[C@H](CO)NC(=O)[C@H](Cc1ccc(O)cc1)NC(=O)[C@H](CC(=O)O)NC(=O)[C@H](CO)NC(=O)[C@@H](NC(=O)[C@H](Cc1ccccc1)NC(=O)[C@@H](NC(=O)CNC(=O)[C@H](CCC(N)=O)NC(=O)C(C)(C)NC(=O)[C@@H](N)Cc1ccc(O)cc1)[C@@H](C)O)[C@@H](C)O)[C@@H](C)CC)C(=O)N[C@@H](C)C(=O)N[C@@H](CCC(N)=O)C(=O)N[C@@H](CCCNC(=N)N)C(=O)N[C@@H](C)C(=O)N[C@@H](Cc1ccccc1)C(=O)N[C@H](C(=O)N[C@@H](CCC(=O)O)C(=O)N[C@@H](Cc1c[nH]c2ccccc12)C(=O)N[C@@H](CC(C)C)C(=O)N[C@@H](CC(C)C)C(=O)N[C@@H](C)C(=O)N[C@@H](CCC(N)=O)C(=O)NCC(=O)N1CCC[C@H]1C(=O)N[C@@H](CO)C(=O)N[C@@H](CO)C(=O)NCC(=O)N[C@@H](C)C(=O)N1CCC[C@H]1C(=O)N1CCC[C@H]1C(=O)N1CCC[C@H]1C(=O)N[C@@H](CO)C(N)=O)C(C)C)C(=O)O [Compound 35] (H-Y[Aib]QGTFTSDYSIYLDKK([AEEA-AEEA-γGlu-Stearoyl])AQRAFVEWLLAQGPSSGAPPPS-NH2),,,,0.01,0.012
